EP4741383A1, “COMPOUND AND USE THEREOF AS ANTI-CANCER DRUG” (Tyligand Bioscience (Shanghai) Limited, priority 2023, dated 2025)

How the values were obtained:
[1] = target: T1, SHP2 enzyme (catalytic domain, amino acid sequence 224-528) (Homo sapiens, UniProt Q06124); experiment: SHP2 enzyme inhibition assay (DiFMUP substrate, fluorescence); assay type: biochemical; conditions: for IC50: SHP2 catalytic domain, DiFMUP substrate, 30 min pre-incubation, read-out: S HP2 I C50; for SHP2 IC50 times lower than control compound 11a-1: relative to 11a-1, IC50 = 0.108 µM
T1 construct: purchased GenScript
T1 sequence (Q06124 224-528): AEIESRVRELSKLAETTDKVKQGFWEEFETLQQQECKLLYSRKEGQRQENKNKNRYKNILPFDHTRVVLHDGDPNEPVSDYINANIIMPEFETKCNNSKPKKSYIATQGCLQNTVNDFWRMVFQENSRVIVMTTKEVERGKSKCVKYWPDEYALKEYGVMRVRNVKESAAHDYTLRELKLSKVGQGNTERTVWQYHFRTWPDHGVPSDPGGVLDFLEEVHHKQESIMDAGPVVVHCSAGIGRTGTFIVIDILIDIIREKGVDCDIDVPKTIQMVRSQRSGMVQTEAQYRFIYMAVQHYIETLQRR
Method: This experiment evaluates the inhibitory effect of the test compounds on SHP2 enzyme activity by detecting the reaction between the human recombinant protein SHP2 enzyme and the substrate.
The stock solutions of the reaction buffer components were thawed and mixed homogeneously at room temperature, to prepare the reaction buffer (55 mM HEPES pH = 7.2 (Sigma, Cat. No. #PHR1428), 100 mM NaCl (Beyotime, Cat. No. #ST374, 5 M solution), 0.5 mM EDTA (Beyotime, Cat. No. #ST066), 1 mM DL-Dithiothreitol (DTT) (Sigma, Cat. No. #D9779), 0.002% BSA (Solarbio, Cat. No. #A8010), 0.001% Brij35 (Brij® L23 solution (Brij35) (Sigma, Cat. No. #B4184)). The SHP2 enzyme (catalytic domain, amino acid sequence 224-528, expressed and purified by GenScript) was thawed slowly on ice. 1 µL of this solution (1.37 mg/mL) was added to 386 µL of the reaction buffer to dilute it to 100 nM. Then, 120 µL of the 100 nM SHP2 enzyme solution was added to 2880 µL of reaction buffer to prepare a 4 nM SHP2 enzyme working solution. The test compounds and the specific inhibitor of SHP2 (11a-1, used as a positive control, Zeng, L. et al., J. Med. Chem. 2014, 57, 6594-6609) were prepared as 10 mM DMSO solutions. 10 µL of the 10 mM compound solution was mixed with 20 µL of DMSO solution, and then serially diluted 3-fold, resulting in 10 concentrations. 1 µL of the serially diluted solution was mixed with 99 µL of reaction buffer to obtain a 10-fold diluted compound working solution.
A 96-well black half-area microplate (Greiner, catalog #675076) was used. 25 µL of 4 nM SHP2 enzyme working solution and 5 µL of 10x compound working solution were added to each well and incubated at room temperature for 30 minutes. 15 µL of DiFMUP substrate (Thermo Fisher Scientific, catalog #D6567) was added to 2985 µL of reaction buffer to prepare a 50 µM substrate working solution. After incubation of the compounds and SHP2 enzyme, 20 µL of the 50 µM substrate working solution was added to each well and incubated at room temperature for 5 minutes. The plate was then read on a multi-mode microplate reader (BioTek, Synergy H1) at 340 nm/450 nm fluorescence.
Data were analyzed using GraphPad Prism 9.0 software. A non-linear S-curve regression dose-response-inhibition equation was used to fit the data and generate the dose-response curve, from which the IC50 value was calculated. [formula]

KYSE520 = experiment: CellTiter-Glo cell proliferation inhibition, KYSE520; assay type: cell-based, human; conditions: Homo sapiens, KYSE-520; KYSE520 cells, 120 hours, CellTiter-Glo
Excerpt: In this study, the CellTiter-Glo® Luminescent Cell Viability Assay kit from Promega was used to evaluate the inhibitory effects of the disclosed compounds on the proliferation of cell lines KYSE520 (a human esophageal squamous cell carcinoma cell line dependent on SHP2 for growth), MeWo (a human malignant melanoma cell line), and MV4-11 (an RTK-mutant human acute monocytic leukemia cell line).
KYSE520 cells (Nanjing Kebaio Biotechnology Co., Ltd., Catalog #CBP60658) were thawed by rapidly shaking the cryovial in a 37 °C water bath to thaw within 1 minute. The thawed cell suspension was mixed homogeneously with RPMI 1640 medium (HyClone, Catalog #SH30027.01) containing 10% FBS (ExCell, Catalog #FND500), centrifuged at 1000 rpm for 5 minutes, and the supernatant was discarded. The cell pellet was resuspended in 5 mL of complete culture medium (RPMI 1640 medium containing 10% FBS) and placed in a cell culture flask with 25 cm^2 of bottom area, then cultured in a cell culture incubator at 37 °C, 95% humidity, and 5% CO2. Cell passaging was performed when the cell confluence reached approximately 80%. During cell passaging, the old culture medium was discarded, the cells were washed once with DPBS (Thermo Fisher, Catalog #14190-144), and 1 mL of trypsin (Thermo Fisher, Catalog #25200072) was added to digest the cells. When the cells dispersed into single cells and detached from the bottom of the culture flask, 3 mL of fresh complete culture medium was added to stop the digestion. After gently pipetting the cell suspension, 1/5 of the cell suspension was retained, 5 mL of fresh complete culture medium was added, and after mixing, the cells were placed in a cell culture flask for further culture. Cell plating was performed when the cell confluence again reached approximately 80%. During cell plating, following the cell passaging method, 1/5 of the cell suspension was retained for continued culture, and the remaining 4/5 of the cell suspension was placed in a 15 mL centrifuge tube. Cell viability was determined using the trypan blue exclusion method to ensure that cell viability was above 90%. A cell suspension with a density of 2.22 × 10^4 cells/mL was prepared using complete culture medium, and 135 µL of the cell suspension was added to a 96-well transparent flat-bottom black-walled cell culture plate (Greiner, Catalog #655090), resulting in a cell density of 3000 viable cells per well. A control group containing only complete culture medium without cells and compounds (i.e., culture medium control) and a control group containing cells but no compound (i.e., cell control) were set up. The cell plates were incubated overnight in a cell culture incubator. First, a 10 mM stock solution of the compound (Example compound and positive control compound 11a-1) in DMSO (Damas-beta, catalog #75927R) was serially diluted 3-fold to the 9th concentration, and a 10th concentration containing only DMSO (without compound) was also prepared as a control. Then, the DMSO solutions containing different concentrations of the compound were diluted 100-fold with complete culture medium, resulting in a 1% DMSO concentration in each solution. Finally, 15 µL of each solution was added to the corresponding wells of the cell culture plate, resulting in a starting compound concentration of 10 µM, with a 3-fold dilution between adjacent concentrations, and a final DMSO concentration of 0.1% in the cell culture plate. The cell plates were then incubated in the cell culture incubator for another 120 hours.
For endpoint detection, CellTiter-Glo reagent (Promega, catalog number #G7573, CellTiter-Glo® Luminescent Cell Viability Assay Kit) was melt and each cell plate was moved to room temperature for equilibration for 30 minutes. 75 µL (KYSE520 cells) or 50 µL (MeWo cells and MV 4-11 cells) of CellTiter-Glo was added to each well of the corresponding cell plate. The plates were shaken on a track-mounted shaker for 2 minutes to fully lyse the cells. […]

Compound	IC50 [1] [nM]	IC50 (KYSE520) [µM]	SHP2 IC50 times lower than control compound 11a-1 [1]
CC(C)(O)CC1CCN(c2ccc(NC(=O)C(=O)Nc3ccc(-c4cc5cc(F)c(-c6nnn[nH]6)cc5n4C4CCC4)cc3)cc2)CC1 [Example 27]	111	0.17	
CC(C)(O)C1CC2(CCN(c3ccc(NC(=O)C(=O)Nc4ccc(-c5cc6cc(F)c(-c7nnn[nH]7)cc6n5C5(C)CCC5)cc4)cc3)CC2)C1 [Example 99]	77	0.17	
O=C(Nc1ccc(-c2cc3cc(F)c(-c4nnn[nH]4)cc3n2C2CCC2)cc1)C(=O)Nc1ccc(N2CCC(C(O)C(F)(F)F)CC2)cc1 (centres unmarked) [Example 32]	61	0.182	
CC1(n2c(-c3ccc(NC(=O)C(=O)Nc4ccc(N5CCC6(CCCOC6)CC5)cc4)cc3)cc3cc(F)c(-c4nnn[nH]4)cc32)CCC1 [Example 75]	34	0.103	3-4 times
CC1(n2c(-c3ccc(NC(=O)C(=O)Nc4ccc(N5CCC6(CCC(CO)CC6)CC5)cc4)cc3)cc3cc(F)c(-c4nnn[nH]4)cc32)CCC1 [Example 113]	114	0.116	
CC(C)(O)C1CC2(CCN(c3ccc(NC(=O)C(=O)Nc4ccc(-c5cc6cc(F)c(-c7nnn[nH]7)cc6n5C5CCC5)cc4)cc3)CC2)C1 [Example 98]	83	0.195	
CC1(O)CC2(CCN(c3ccc(NC(=O)C(=O)Nc4ccc(-c5cc6cc(F)c(-c7nnn[nH]7)cc6n5C5CCC5)cc4)cc3)C2)C1 (centres unmarked) [Example 91]	93	0.101	
CC1(n2c(-c3ccc(NC(=O)C(=O)Nc4ccc(N5CCC6(CCC(O)C6)CC5)cc4)cc3)cc3cc(F)c(-c4nnn[nH]4)cc32)CC1 (centres unmarked) [Example 102]	49	0.116	
CC1(n2c(-c3ccc(NC(=O)C(=O)Nc4ccc(N5CC6CC(CO)CC6C5)cc4)cc3)cc3cc(F)c(-c4nnn[nH]4)cc32)CCC1 (centres unmarked) [Example 120]	55	0.115	
CC1(O)CCC2(CCN(c3ccc(NC(=O)C(=O)Nc4ccc(-c5cc6cc(F)c(-c7nnn[nH]7)cc6n5C5CCC5)cc4)cc3)CC2)C1 (centres unmarked) [Example 104]	70	0.125	
CC(C)(O)C1CCN(c2ccc(NC(=O)C(=O)Nc3ccc(-c4cc5cc(F)c(-c6nnn[nH]6)cc5n4Cc4ccccc4)cc3)cc2)CC1 [Example 36]	52	0.12	
O=C(Nc1ccc(-c2cc3cc(F)c(-c4nnn[nH]4)cc3n2C2CCC2)cc1)C(=O)Nc1ccc(N2CCC(F)(CO)C2)cc1 (centres unmarked) [Example 17]	120	0.185	
C[C@@H](O)C1CCN(c2ccc(NC(=O)C(=O)Nc3ccc(-c4cc5cc(F)c(-c6nnn[nH]6)cc5n4C4(C)CCC4)cc3)cc2)CC1 [Example 30]	86	0.192	
O=C(Nc1ccc(-c2cc3cc(F)c(-c4nnn[nH]4)cc3n2C2CCC2)cc1)C(=O)Nc1ccc(N2CCC3(CCC(CO)C3)CC2)cc1 (centres unmarked) [Example 106]	103	0.11	
CC1(n2c(-c3ccc(NC(=O)C(=O)Nc4ccc(N5CC[C@H](CO)C5)cc4)cc3)cc3cc(F)c(-c4nnn[nH]4)cc32)CCC1 [Example 13]	66	0.182	
CC1(n2c(-c3ccc(NC(=O)C(=O)Nc4ccc(N5CC6(CCC(CO)CC6)C5)cc4)cc3)cc3cc(F)c(-c4nnn[nH]4)cc32)CCC1 [Example 86]	64	0.158	
CC1(n2c(-c3ccc(NC(=O)C(=O)Nc4ccc(N5CC6(CCOCC6)C5)cc4)cc3)cc3cc(F)c(-c4nnn[nH]4)cc32)CCC1 [Example 58]	31	0.125	3-4 times
CC(C)(O)C1CCN(c2ccc(NC(=O)C(=O)Nc3ccc(-c4cc5cc(F)c(-c6nnn[nH]6)cc5n4C4(C)CC4)cc3)cc2)CC1 [Example 35]	174		
CC1(n2c(-c3ccc(NC(=O)C(=O)Nc4ccc(N5CCC(CO)CC5)cc4)cc3)cc3cc(F)c(-c4nnn[nH]4)cc32)CCC1 [Example 24]	271		
O=C(Nc1ccc(-c2cc3cc(F)c(-c4nnn[nH]4)cc3n2C2CCC2)cc1)C(=O)Nc1ccc(N2CC3(CCOC3)C2)cc1 [Example 54]	69		
O=C(Nc1ccc(-c2cc3cc(F)c(-c4nnn[nH]4)cc3n2C2CCC2)cc1)C(=O)Nc1ccc(N2CC3(CCC(O)C3)C2)cc1 (centres unmarked) [Example 79]	108		
CC1(CO)CCN(c2ccc(NC(=O)C(=O)Nc3ccc(-c4cc5cc(F)c(-c6nnn[nH]6)cc5n4C4(C)CCC4)cc3)cc2)CC1 [Example 41]	63		
O=C(Nc1ccc(-c2cc3cc(F)c(-c4nnn[nH]4)cc3n2C2CCC2)cc1)C(=O)Nc1ccc(N2CC3(CCC(CO)CC3)C2)cc1 [Example 85]	47		
CC(C)(O)C1CCC2(CC1)CN(c1ccc(NC(=O)C(=O)Nc3ccc(-c4cc5cc(F)c(-c6nnn[nH]6)cc5n4C4CCC4)cc3)cc1)C2 [Example 87]	89		
N#CC1CCN(c2ccc(NC(=O)C(=O)Nc3ccc(-c4cc5cc(F)c(-c6nnn[nH]6)cc5n4C4CCC4)cc3)cc2)CC1 [Example 22]	38		3-4 times
O=C(Nc1ccc(-c2ccsc2)cc1)C(=O)Nc1ccc(-c2cc3cc(O)c(-c4nnn[nH]4)cc3n2C2CCC2)cc1 [Example 3]	278		
CC1CN(c2ccc(NC(=O)C(=O)Nc3ccc(-c4cc5cc(F)c(-c6nnn[nH]6)cc5n4C4CCC4)cc3)cc2)CC1CO (centres unmarked) [Example 18]	74		
